In general, IC50 refers to the concentration that inhibits the measured activity by half. A low value points to greater potency in that assay.

From US10112935B2, “Indazolyl thiadiazolamines and related compounds for inhibition of Rho-associated protein kinase and the treatment of disease” (Lycera Corporation, priority 2015, dated 2018) come the findings set out here.

Assay [1] concerns the target GST-tagged human ROCK1 catalytic domain 1-477 (Homo sapiens (Human), UniProt Q13464). Put plainly: Inhibition of Rho-associated protein kinase isoform 1 (LANCE Ultra ULight-CREBtide FRET kinase assay). It counts as biochemical. Conditions: 30 μM was the highest concentration analyzed. Put shortly:
(§1)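 Baculovirus-expressed kinase phosphorylated ULight-CREBtide for 90 min at room temperature before the reaction was stopped with 10 mM EDTA. Phospho-substrate was detected by TR-FRET with 1 nM Europium-anti-phospho-CREB (Ser133) antibody after 60 min at room temperature.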

Assay [2] concerns the target GST-tagged human ROCK2 catalytic domain 1-553 (Homo sapiens (Human), UniProt O75116). The experiment in a line: Inhibition of Rho-associated protein kinase isoform 2 (LANCE Ultra ULight-CREBtide FRET kinase assay). It counts as biochemical. Conditions: for IC50: 30 μM was the highest concentration analyzed; for Selectivity for ROCK2 over ROCK1 (IC50 ROCK1 / IC50 ROCK2): selectivity ROCK2 vs ROCK1. In a few lines: as §1
A general note: Time-resolved FRET reads energy transfer from a long-lived donor to a nearby acceptor.

GST-tagged human ROCK2 catalytic domain 1-553, sequence (O75116 1-553): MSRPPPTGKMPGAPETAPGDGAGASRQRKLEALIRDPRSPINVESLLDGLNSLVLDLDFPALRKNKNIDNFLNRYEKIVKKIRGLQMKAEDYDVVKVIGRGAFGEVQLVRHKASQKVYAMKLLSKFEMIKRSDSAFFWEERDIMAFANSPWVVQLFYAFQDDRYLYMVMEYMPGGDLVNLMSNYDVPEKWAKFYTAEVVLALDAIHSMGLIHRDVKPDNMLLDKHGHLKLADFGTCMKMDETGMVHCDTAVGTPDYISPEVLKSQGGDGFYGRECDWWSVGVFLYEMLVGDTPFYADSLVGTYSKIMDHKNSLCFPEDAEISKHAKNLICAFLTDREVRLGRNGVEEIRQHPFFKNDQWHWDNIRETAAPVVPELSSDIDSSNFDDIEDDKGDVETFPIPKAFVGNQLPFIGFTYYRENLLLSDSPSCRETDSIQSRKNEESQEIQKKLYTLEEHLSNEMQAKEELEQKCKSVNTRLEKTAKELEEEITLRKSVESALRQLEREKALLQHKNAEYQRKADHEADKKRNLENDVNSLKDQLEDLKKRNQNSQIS
GST-tagged human ROCK1 catalytic domain 1-477, sequence (Q13464 1-477): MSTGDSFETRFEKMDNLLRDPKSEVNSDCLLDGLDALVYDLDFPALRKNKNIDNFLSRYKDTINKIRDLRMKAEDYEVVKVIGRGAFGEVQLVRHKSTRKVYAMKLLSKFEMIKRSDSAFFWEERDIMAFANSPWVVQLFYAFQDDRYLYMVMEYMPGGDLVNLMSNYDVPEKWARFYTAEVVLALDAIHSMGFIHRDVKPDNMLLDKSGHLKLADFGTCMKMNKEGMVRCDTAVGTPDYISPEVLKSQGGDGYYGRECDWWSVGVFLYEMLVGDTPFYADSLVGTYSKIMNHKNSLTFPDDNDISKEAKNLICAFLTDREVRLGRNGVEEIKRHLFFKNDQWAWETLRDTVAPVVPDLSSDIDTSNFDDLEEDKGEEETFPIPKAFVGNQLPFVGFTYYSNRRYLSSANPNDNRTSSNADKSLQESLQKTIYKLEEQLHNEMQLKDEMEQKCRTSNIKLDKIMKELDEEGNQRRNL

Compound `O=C(Nc1cccc(-c2nnc(Nc3ccc4[nH]ncc4c3Cl)s2)c1)c1cc(O)cc(O)c1` [Example 35AS] showed an IC50 in assay [1] of under 1 µM. In assay [2], the IC50 was under 1 µM and the “Selectivity for ROCK2 over ROCK1 (IC50 ROCK1 / IC50 ROCK2)” value (“Selectivity … (IC50 ROCK1 / IC50 ROCK2)” for short) was over 50.

In turn, `CC(C)NCC(=O)Nc1cncc(-c2nnc(Nc3ccc4[nH]ncc4c3)s2)c1` [Example A-2] showed an IC50 in assay [1] of 1 to 15 µM. In addition, in assay [2], the IC50 was under 1 µM and the “Selectivity … (IC50 ROCK1 / IC50 ROCK2)” value is reported as over 5.

Consider `CC(=O)Nc1ccc(S(C)(=O)=O)c(-c2nnc(Nc3ccc4[nH]ncc4c3Cl)s2)c1` [Example 48E], for which the IC50 in assay [1] was in the range of 15 to 30 µM. Further, in assay [2], the IC50 was 1 to 15 µM and the “Selectivity … (IC50 ROCK1 / IC50 ROCK2)” value is on record as under 5.

In turn, `CC(=O)Oc1cccc(-c2nnc(Nc3ccc4[nH]ncc4c3Cl)s2)c1` [Example 35AG] came in with an IC50 in assay [1] of over 30 µM. Also, in assay [2], the IC50 is under 1 µM and the “Selectivity … (IC50 ROCK1 / IC50 ROCK2)” value was over 100.

`c1cc2[nH]ncc2cc1Nc1nnc(C2CNCCN2)s1` (stereo not shown) [Example A-29] returned an IC50 in assay [1] of 1 to 15 µM. Moreover, in assay [2], the IC50 is 1 to 15 µM and the “Selectivity … (IC50 ROCK1 / IC50 ROCK2)” value is under 5.

Turning to `O=C(O)C(F)(F)F.Oc1cccc(-c2cccc(-c3nnc(Nc4ccc5[nH]ncc5c4Cl)s3)c2)n1` [Example 46B], the IC50 is over 30 µM in assay [1] and under 1 µM in assay [2]. For the same compound, the “Selectivity … (IC50 ROCK1 / IC50 ROCK2)” value in assay [2] is over 100.

`CC(=O)c1cccc(-c2nnc(Nc3ccc4[nH]ncc4c3Cl)s2)c1` [Example 35AM] had a 50% inhibitory concentration (IC50) in assay [1] of over 30 µM. In addition, in assay [2], the IC50 was under 1 µM and the “Selectivity … (IC50 ROCK1 / IC50 ROCK2)” value is on record as over 100.

Consider `CC(=O)Nc1cc(F)c(F)c(-c2nnc(Nc3ccc4[nH]ncc4c3Cl)s2)c1.O=C(O)C(F)(F)F` [Example 35BB], for which the IC50 in assay [1] was over 30 µM. Also, in assay [2], the IC50 was under 1 µM and the “Selectivity … (IC50 ROCK1 / IC50 ROCK2)” value was over 100.

The compound `CC(=O)Nc1cc(C(=O)NCC(O)CO)cc(-c2nnc(Nc3ccc4[nH]ncc4c3Cl)s2)c1` (stereo not shown) [Example 48W] gave an IC50 in assay [1] of under 1 µM. In assay [2], the concentration for half-maximal inhibition (IC50) is under 1 µM and the “Selectivity … (IC50 ROCK1 / IC50 ROCK2)” value is given as over 5.

Consider `CC(=O)N(C)c1cccc(-c2nnc(Nc3ccc4[nH]ncc4c3Cl)s2)c1` [Example 35AZ], for which the concentration for half-maximal inhibition (IC50) in assay [1] was over 30 µM. In addition, in assay [2], the IC50 fell in the range of 1 to 15 µM and the “Selectivity … (IC50 ROCK1 / IC50 ROCK2)” value is over 5.

On to `CN1CCN(c2cccc(-c3nnc(Nc4ccc5[nH]ncc5c4Cl)s3)c2)C(=O)C1` [Example 42, 1-(3-(5-((4-Chloro-1H-indazol-5-yl)amino)-1,3,4-thiadiazol-2-yl)phenyl)-4-methylpiperazin-2-one], for which the IC50 in assay [1] and in assay [2] was 1 to 15 µM in each case. Further, the “Selectivity … (IC50 ROCK1 / IC50 ROCK2)” value in assay [2] was over 5.

As to `O=C(c1ccnnc1)N1CCN(c2nnc(Nc3ccc4[nH]ncc4c3)s2)CC1` [Example A-36], the IC50 in assay [1] is over 30 µM. Besides, in assay [2], the IC50 was in the range of 1 to 15 µM and the “Selectivity … (IC50 ROCK1 / IC50 ROCK2)” value is reported as over 5.

Consider `OC1(c2cccc(-c3nnc(Nc4ccc5[nH]ncc5c4Cl)s3)c2)COC1` [Example 35AJ], for which the IC50 in assay [1] is over 30 µM. Also, in assay [2], the IC50 was under 1 µM and the “Selectivity … (IC50 ROCK1 / IC50 ROCK2)” value is on record as over 75.

`CC(=O)Nc1cc(-c2nnc(Nc3ccc4[nH]ncc4c3Cl)s2)ccn1.O=C(O)C(F)(F)F` [Example 35AE] yielded an IC50 in assay [1] of under 1 µM. In assay [2], the IC50 was under 1 µM and the “Selectivity … (IC50 ROCK1 / IC50 ROCK2)” value was under 5.

As to `Cn1cc(C(=O)Nc2cc(-c3nnc(Nc4ccc5[nH]ncc5c4)s3)ccc2C(=O)O)cn1` [Example A-5], the half-inhibitory concentration (IC50) in assay [1] was under 1 µM. Moreover, in assay [2], the IC50 is under 1 µM and the “Selectivity … (IC50 ROCK1 / IC50 ROCK2)” value was over 5.

With `CC(=O)Nc1cc(CSC(C)=O)cc(-c2nnc(Nc3ccc4[nH]ncc4c3Cl)s2)c1` [Example 47, (S)-(3-Acetamido-5-(5-((4-chloro-1H-indazol-5-yl)amino)-1,3,4-thiadiazol-2-yl)benzyl)ethanethioate], the IC50 in assay [1] was over 30 µM. Besides, in assay [2], the IC50 was under 1 µM and the “Selectivity … (IC50 ROCK1 / IC50 ROCK2)” value is given as over 100.

Turning to `Cc1cnn(CC(=O)Nc2cccc(-c3nnc(N(C)c4ccc5[nH]ncc5c4Cl)s3)c2)c1` [Example 54C], the IC50 in assay [1] was 1 to 15 µM. Moreover, in assay [2], the 50% inhibitory concentration (IC50) fell in the range of 1 to 15 µM and the “Selectivity … (IC50 ROCK1 / IC50 ROCK2)” value is recorded as under 5.

In assay [1], `Cc1cc(CC(=O)Nc2cccc(-c3nnc(Nc4ccc5[nH]ncc5c4Cl)s3)c2)on1` [Example 35BN] came in with an IC50 of under 1 µM. For the same compound, in assay [2], the IC50 is under 1 µM and the “Selectivity … (IC50 ROCK1 / IC50 ROCK2)” value is over 5.

`CC(=O)Nc1cccc(-c2nnc(N(C)c3ccc4[nH]ncc4c3)s2)c1` [Example 54D]: the IC50 in assay [1] and in assay [2] was 1 to 15 µM each time.

Take `CC(C)(O)c1ccc(-c2cn3cccc(-c4nnc(Nc5ccc6[nH]ncc6c5Cl)s4)c3n2)cc1` [Example 50F]: the half-inhibitory concentration (IC50) in assay [1] and in assay [2] was under 1 µM in each case. Further, in assay [2], the “Selectivity … (IC50 ROCK1 / IC50 ROCK2)” value is over 5.

In assay [1], `FC(F)(F)c1nc2c(-c3nnc(Nc4ccc5[nH]ncc5c4Cl)s3)cc(Br)cn2n1` [Example 50B] had an IC50 of 1 to 15 µM. Further, in assay [2], the IC50 was under 1 µM and the “Selectivity … (IC50 ROCK1 / IC50 ROCK2)” value is over 100.

As for `Clc1c(Nc2nnc(-c3cccc(-c4nccs4)c3)s2)ccc2[nH]ncc12` [Example 46I], the 50% inhibitory concentration (IC50) was over 30 µM in assay [1] and under 1 µM in assay [2]. Further, the “Selectivity … (IC50 ROCK1 / IC50 ROCK2)” value in assay [2] is reported as over 100.

For the compound `O=C(Nc1cccc(-c2nnc(Nc3ccc4[nH]ncc4c3)s2)n1)c1c[nH]cn1` [Example A-31], the IC50 in assay [1] was over 30 µM; in assay [2], under 1 µM. In addition, the “Selectivity … (IC50 ROCK1 / IC50 ROCK2)” value in assay [2] is given as over 100.

In the case of `O=[N+]([O-])c1cccc(-c2nnc(Nc3ccc4[nH]ncc4c3)s2)c1` [Example A-45], the IC50 in assay [1] fell in the range of 1 to 15 µM. Further, in assay [2], the IC50 was in the range of 1 to 15 µM and the “Selectivity … (IC50 ROCK1 / IC50 ROCK2)” value was under 5.

In turn, `CS(=O)(=O)Nc1cccc(-c2nnc(Nc3ccc4[nH]ncc4c3)s2)c1` [Example A-19] yielded an IC50 in assay [1] of over 30 µM. In addition, in assay [2], the IC50 was under 1 µM and the “Selectivity … (IC50 ROCK1 / IC50 ROCK2)” value is reported as over 100.

`N[C@@H]1CCN(c2nnc(Nc3ccc4[nH]ncc4c3)s2)C1` [Example A-38] gave an IC50 in assay [1] of 1 to 15 µM. For the same compound, in assay [2], the IC50 was 1 to 15 µM and the “Selectivity … (IC50 ROCK1 / IC50 ROCK2)” value is on record as under 5.

The compound `Cc1coc(-c2cc(F)cc(-c3nnc(Nc4ccc5[nH]ncc5c4Cl)s3)c2)n1` [Example 46D] had an IC50 in assay [1] of over 30 µM. Further, in assay [2], the IC50 was under 1 µM and the “Selectivity … (IC50 ROCK1 / IC50 ROCK2)” value is listed as over 100.

Take `O=C(Cc1ccon1)Nc1cccc(-c2nnc(Nc3ccc4[nH]ncc4c3Cl)s2)c1` [Example 35BG]: the IC50 is over 30 µM in assay [1] and under 1 µM in assay [2]. Also, in assay [2], the “Selectivity … (IC50 ROCK1 / IC50 ROCK2)” value is over 100.

Take `Clc1c(Nc2nnc(-c3cccn4cc(C5CCNCC5)nc34)s2)ccc2[nH]ncc12` [Example 50H]: the IC50 in assay [1] is 1 to 15 µM; in assay [2], under 1 µM. In addition, the “Selectivity … (IC50 ROCK1 / IC50 ROCK2)” value in assay [2] is on record as over 5.

On to `CC(C(=O)Nc1cc(-c2nnc(Nc3ccc4[nH]ncc4c3Cl)s2)ccn1)c1ccc(F)cc1` (stereo not shown) [Example 34, N-(4-(5-((4-Chloro-1H-indazol-5-yl)amino)-1,3,4-thiadiazol-2-yl)pyridin-2-yl)-2-(4-fluorophenyl)propanamide], for which, in assay [1], the IC50 is under 1 µM. Moreover, in assay [2], the IC50 was under 1 µM and the “Selectivity … (IC50 ROCK1 / IC50 ROCK2)” value is reported as over 50.

`CC(C)NC(=O)COc1cncc(-c2nnc(Nc3ccc4[nH]ncc4c3)s2)c1` [Example A-7] returned an IC50 in assay [1] of over 30 µM. In addition, in assay [2], the IC50 was under 1 µM and the “Selectivity … (IC50 ROCK1 / IC50 ROCK2)” value is over 50.

`O=C(Nc1cc(-c2nnc(Nc3ccc4[nH]ncc4c3Cl)s2)ccc1C(F)(F)F)c1cnn(CCO)c1` [Example 48M]: the IC50 in assay [1] was under 1 µM. For the same compound, in assay [2], the IC50 was under 1 µM and the “Selectivity … (IC50 ROCK1 / IC50 ROCK2)” value is recorded as over 5.

Compound `CC(C)NC(=O)COc1cccc(-c2nnc(Nc3ccc4[nH]ncc4c3)s2)c1` [Example 35CP] had an IC50 in assay [1] of 15 to 30 µM. Besides, in assay [2], the IC50 was under 1 µM and the “Selectivity … (IC50 ROCK1 / IC50 ROCK2)” value is given as over 5.

For the compound `O=C(Nc1cccc(-c2nnc(Nc3ccc4[nH]ncc4c3)s2)c1)c1cccnc1` [Example A-50], the IC50 was over 30 µM in assay [1] and under 1 µM in assay [2]. Besides, in assay [2], the “Selectivity … (IC50 ROCK1 / IC50 ROCK2)” value was over 100.

In turn, `OCCN(c1ccc2[nH]ncc2c1)c1nnc(-c2cnccn2)s1` [Example A-12] registered a half-maximal inhibitory concentration (IC50) in assay [1] of over 30 µM. Moreover, in assay [2], the IC50 was over 30 µM and the “Selectivity … (IC50 ROCK1 / IC50 ROCK2)” value was under 5.

In turn, `O=C(Cc1ccc(F)cc1)Nc1cc(-c2nnc(Nc3ccc4[nH]ncc4c3Cl)s2)ccn1` [Example 35G] gave an IC50 in assay [1] of under 1 µM. In assay [2], the IC50 is under 1 µM and the “Selectivity … (IC50 ROCK1 / IC50 ROCK2)” value is given as over 5.

In turn, `CC(C)(CO)NC(=O)c1cccc(-c2nnc(Nc3ccc4[nH]ncc4c3Cl)s2)c1` [Example 35AR] registered a 50% inhibitory concentration (IC50) in assay [1] of 1 to 15 µM. For the same compound, in assay [2], the IC50 was under 1 µM and the “Selectivity … (IC50 ROCK1 / IC50 ROCK2)” value was over 5.

Turning to `Cn1ccnc1-c1cccc(-c2nnc(Nc3ccc4[nH]ncc4c3Cl)s2)c1.O=C(O)C(F)(F)F` [Example 46E], the figures for the IC50 in assay [1] and in assay [2] were over 30 µM and under 1 µM, respectively. Besides, the “Selectivity … (IC50 ROCK1 / IC50 ROCK2)” value in assay [2] was over 100.

With `CC(=O)Nc1cc(C(=O)O)cc(-c2nnc(Nc3ccc4[nH]ncc4c3)s2)c1` [Example 48AE], the IC50 in assay [1] and in assay [2] was under 1 µM each time.
